Our source for the IC50 and melting point values is US8735414B2 (priority 2009, dated 2014).

Data set [1] has as its system bicistronic HCV replicon (replicon RNA, GenBank Accession No. AJ242654). Nature of the data set: HCV Replicon Assay. Format: cell-based. To be noted: Hepatitis C virus, 72 h, read-out: Replicon IC50. A general note: A replicon is a self-replicating genome or part of one, used to study replication in cells.

Each structure is given as a SMILES string.

As usually defined, the IC50 is the concentration at which inhibition is half-maximal. What is called melting point is the temperature of the solid-liquid transition. Take `N#Cc1ccc2c(C#N)c(-c3ccc(S(=O)(=O)NC(CF)CF)cn3)n(C3CCCC3)c2c1` [compound 468, 6-(3,6-dicyano-1-cyclopentyl-1H-indol-2-yl)-N-(1,3-difluoropropan-2-yl)pyridine-3-sulfonamide]: the melting point lay within 219 to 221 °C. Also, the IC50 in data set [1] was < 500 nM.
Regarding `CC(C)(NS(=O)(=O)c1ccc(-c2c(C(N)=O)c3cc(F)c(OC(F)F)cc3n2C2CCCC2)nc1)C(F)(F)F` [compound 863, 1-cyclopentyl-6-(difluoromethoxy)-5-fluoro-2-{5-[(1,1,1-trifluoro-2-methylpropan-2-yl)sulfamoyl]pyridin-2-yl}-1H-indole-3-carboxamide], the melting point is 215 to 217 °C. Also, the IC50 in data set [1] was < 500 nM.
The matching figures for `COc1ccc2c(C#N)c(-c3ncc(S(=O)(=O)N[C@@H](C)C4CC4)cn3)n(C3CCC3)c2c1` [compound 205, 2-(3-cyano-1-cyclobutyl-6-methoxy-1H-indol-2-yl)-N-[(1S)-1-cyclopropylethyl]pyrimidine-5-sulfonamide]: 204 to 206 °C and < 500 nM.
For the molecule `Cc1ccc2c(C#N)c(-c3ccc(S(=O)(=O)NC(C)C)cn3)n([C@@H]3CCOC3)c2c1` [compound 55, 6-{3-cyano-6-methyl-1-[(3R)-tetrahydrofuran-3-yl]-1H-indol-2-yl}-N-(propan-2-yl)pyridine-3-sulfonamide], the melting point lay in the range of 164 to 167 °C. For the same molecule, the IC50 in data set [1] is < 500 nM.
Molecule `NC(=O)c1c(-c2ccc(S(=O)(=O)NC3(C(F)(F)F)CC3)cn2)n(C2CCC2)c2cc(OC(F)F)c(F)cc12` [compound 809, 1-cyclobutyl-6-(difluoromethoxy)-5-fluoro-2-(5-{[1-(trifluoromethyl)cyclopropyl]sulfamoyl}pyridin-2-yl)-1H-indole-3-carboxamide] had a melting point of 197 to 200 °C. Also, in data set [1], the 50% inhibitory concentration (IC50) is < 500 nM.
`CC(C)NS(=O)(=O)c1cnc(-c2c(C#N)c3cc(Cl)ccc3n2C2CCCC2)nc1` [compound 314, 2-(5-chloro-3-cyano-1-cyclopentyl-1H-indol-2-yl)-N-(propan-2-yl)pyrimidine-5-sulfonamide]: the melting point is 239 to 245 °C. Besides, in data set [1], the IC50 was < 500 nM.
The molecule `Cc1cc2c(cc1F)c(C#N)c(-c1ccc(S(=O)(=O)N[C@@H](C)C(F)(F)F)cn1)n2-c1sccc1C` [compound 1000, 6-[3-cyano-5-fluoro-6-methyl-1-(3-methylthiophen-2-yl)-1H-indol-2-yl]-N-[(2S)-1,1,1-trifluoropropan-2-yl]pyridine-3-sulfonamide] displayed a melting point of 197 to 203.8 °C. Besides, the half-maximal inhibitory concentration (IC50) in data set [1] is < 500 nM.
`CCc1cc2c(cc1F)c(C#N)c(-c1ccc(S(=O)(=O)N[C@@H](C)C(F)(F)F)cn1)n2-c1cccnn1` [compound 975, 6-[3-cyano-6-ethyl-5-fluoro-1-(pyridazin-3-yl)-1H-indol-2-yl]-N-[(2S)-1,1,1-trifluoropropan-2-yl]pyridine-3-sulfonamide] gave a melting point of 240 to 247 °C. Besides, the IC50 in data set [1] is < 500 nM.
In turn, `Cc1ccc2c(C#N)c(-c3ccc(S(=O)(=O)NC(C)(C)C(F)(F)F)cn3)n(C3CCCC3)c2c1F` [compound 579, 6-(3-cyano-1-cyclopentyl-7-fluoro-6-methyl-1H-indol-2-yl)-N-(1,1,1-trifluoro-2-methylpropan-2-yl)pyridine-3-sulfonamide] displayed a melting point of 203 to 205 °C. Also, the IC50 in data set [1] is < 500 nM.
The like results for `Cc1cc2c(cc1F)c(C#N)c(-c1ncc(S(=O)(=O)N[C@@H](C)C(F)(F)F)cc1C)n2-c1ccccn1` [compound 889, 6-[3-cyano-5-fluoro-6-methyl-1-(pyridin-2-yl)-1H-indol-2-yl]-5-methyl-N-[(2S)-1,1,1-trifluoropropan-2-yl]pyridine-3-sulfonamide] were, in that order, 197 to 202 °C and < 500 nM.
